The text below walks through data of patent US10640499B2 (Gilead Sciences, Inc., priority 2016, dated 2020).

A value given as a limit tells only on which side of the number the result lay.

Format in all cases: cell-based
One assay deals with TNFα. As to the kind of experiment: Cytokine profiling assay in human PBMCs, TNFα detection (MSD). The settings on record: PBMC; cryopreserved human PBMCs, 24 hours at 37° C.; concentration at half-maximal effect, normalized percent activation; read-out: TNFa AC50. The source says:
(§1) Cryopreserved human PBMCs isolated from healthy donors were purchased from StemCell Technologies (Vancouver, Canada). Cell culture medium used was RPMI with L-Glutamine (Mediatech, Manassas, Va.) supplemented with 10% fetal bovine serum (Hyclone, GE Healthcare, Logan, Utah) and Penicillin-Streptomycin (Mediatech). Human TNFα, IL12p40, and IFNα2a 384-well Assay capture plates, standards, buffers and processing reagents were obtained from MesoScale Discovery Technologies (MSD; Rockville, Md.).
(§2) Cryopreserved human PBMCs (1×10e8 cells/ml) were thawed at 37° C. and resuspended in 25 mL warm cell culture medium. The cells were pelleted at 200×g (Beckman Avanti J-E) for 5 min and resuspended in 20 mL of fresh culture media. Cells were counted using a Cellometer (Nexcelcom Bioscience), adjusted to 2×10e6 cells, and incubated for 2 hours in an incubator set at 37° C., 5% CO2 to recover from cryopreservation. Compounds were serially diluted in DMSO at half-log steps to generate a 10-point dose range. Using a Bravo pipette equipped with a 384 well head (Agilent), 0.4 μL of compound was transferred to each well of a 384 well black, clear bottom plate (Greiner Bio-One, Germany) containing 30 μL of cell culture medium. Recovered PBMCs were then dispensed into the assay plate at 50 μL per well (100 k cells/well) using the MicroFlow multichannel dispenser (Biotek). Final DMSO concentration was 0.5%. DMSO was used as the negative control. The plates were incubated for 24 hours at 37° C. PBMCs in the assay plate were pelleted by centrifugation (Beckman Avanti J-E) at 200×g for 5 min.
(§3) Using a Biomek FX 384 well pipetting station (Beckman), conditioned culture medium (CCM) from the assay plate was transferred to MSD capture plates customized for each cytokine. For IFNα and IL12-p40 detection, 25 μL and 20 μL of CCM were added directly to each capture plate, respectively. For TNFα detection, CCM was diluted 1:9 in fresh culture medium, and 20 μL of diluted CCM was used. Serially diluted calibration standards for each cytokine were used to generate standard curves and establish assay linearity. The plates were sealed and incubated overnight at 4° C. in a plate shaker (Titer Plate) set at 200 rpm. On the following day, antibodies specific for each cytokine were diluted 1:50 in MSD Diluent 100 antibody dilution buffer. Diluted antibodies were added to corresponding capture plates at 10 μL/well, and incubated at RT for 1-2 hrs in the shaker. The plates were washed with PBST buffer (3×, 60 μl/well) using a Biotek Multiflow plate washer. MSD Read Buffer diluted to 2× in deionized water and 35 μL/well was added via Biomek FX instrument. The plates were read immediately in a MSD6000 reader. Data were normalized to positive and negative controls in each assay plate. AC50 values represent compound concentrations at half-maximal effect based on normalized percent activation and calculated by non-linear regression using Pipeline Pilot software (Accelrys, San Diego, Calif.).

The test system of another assay is IFNα. As to the kind of experiment: Cytokine profiling assay in human PBMCs, IFNα detection (MSD). The settings on record: PBMC; cryopreserved human PBMCs, 24 hours at 37° C.; concentration at half-maximal effect, normalized percent activation; read-out: IFNa AC50.
Excerpt: as §1, §2, §3

The subject of the next assay is IL12p40. As to the kind of experiment: Cytokine profiling assay in human PBMCs, IL12-p40 detection (MSD). The settings on record: PBMC; cryopreserved human PBMCs, 24 hours at 37° C.; concentration at half-maximal effect, normalized percent activation.
Excerpt: as §1, §2, §3

The term AC50 denotes the midpoint of the concentration-response curve, whichever way the signal moves.

Consider `CCCC[C@](C)(CNC(C)=O)Nc1nc(N)nc2cc(CC)cnc12` [Compound 1, (R)—N-(2-((2-amino-7-ethylpyrido[3,2-d]pyrimidin-4-yl)amino)-2-methylhexyl)acetamide], for which the AC50 stood at 85.3 nM with TNFα, 44600 nM in the assay on IFNα and 60.4 nM with IL12p40.

As to `CCCC[C@](C)(CNC(C)=O)Nc1nc(N)nc2cc(C(C)C)cnc12` [Compound 2, (R)—N-(2-((2-amino-7-isopropylpyrido[3,2-d]pyrimidin-4-yl)amino)-2-methylhexyl)acetamide], the AC50 with TNFα came out at 262 nM; in the assay on IFNα, 35000 nM; with IL12p40, 209 nM.

Consider `CCCC[C@](C)(CNC(C)=O)Nc1nc(N)nc2cc(OC)cnc12` [Compound 4, (R)—N-(2-((2-amino-7-methoxypyrido[3,2-d]pyrimidin-4-yl)amino)-2-methylhexyl)acetamide], for which the half-maximal activity concentration (AC50) was 122 nM in the assay with TNFα, more than 50000 nM in the assay with IFNα and 120 nM with IL12p40.

Regarding `CCCC[C@](C)(CNC(C)=O)Nc1nc(N)nc2cc(OCC)cnc12` [Compound 5, (R)—N-(2-((2-amino-7-ethoxypyrido[3,2-d]pyrimidin-4-yl)amino)-2-methylhexyl)acetamide], the AC50 with TNFα was 81.2 nM; in the assay on IFNα, more than 50000 nM; in the assay on IL12p40, 48.4 nM.

With `CCC[C@](C)(CNC(C)=O)Nc1nc(N)nc2cccnc12` [Compound 6, (R)—N-(2-((2-aminopyrido[3,2-d]pyrimidin-4-yl)amino)-2-methylpentyl)acetamide], the AC50 was 1460 nM with TNFα, more than 50000 nM in the assay with IFNα and 1240 nM in the assay on IL12p40.

With `CCCCCC[C@](C)(CNC(C)=O)Nc1nc(N)nc2cccnc12` [Compound 7], the AC50 is 4190 nM with TNFα, more than 50000 nM with IFNα and 2670 nM in the assay on IL12p40.

As to `CCCC[C@H](CNC(C)=O)Nc1nc(N)nc2cc(F)cnc12` [Compound 8, (R)—N-(2-((2-amino-7-fluoropyrido[3,2-d]pyrimidin-4-yl)amino)hexyl)acetamide], the AC50 was 1880 nM in the assay with TNFα, more than 50000 nM in the assay on IFNα and 1480 nM in the assay with IL12p40.
